Source: patent publication US9617343B2, “Methods and compositions for treating lupus” (GENZYME CORPORATION, priority 2009, dated 2017)

Key:
Type in all cases: in vivo, mouse
NZB/NZWF1 mice [1] = experiment: Levels of proteinuria (colorimetric total urine protein assay); settings: by the end of the study (43 weeks), antibodies two i.p. injections ~3 mg/kg, cyclophosphamide 50 mg/kg weekly
NZB/NZWF1 mice [2] = experiment: Titers of serum IgG antibodies to dsDNA by ELISA; settings: antibody two i.p. injections ~3 mg/kg, cyclophosphamide 50 mg/kg weekly
NZB/NZWF1 mice [3] = settings: antibodies two doses ~3 mg/kg i.p., cyclophosphamide 50 mg/kg weekly injections, to 43 weeks of age
NZB/NZWF1 mice [4] = experiment: Histological examination of kidneys; settings: trend, not statistically significant
NZB/NZWF1 mice [5] = experiment: Kidney section staining for CD4+, CD8+ and FoxP3+ cells; settings: kidney sections of NZB/NZWF1 mice scored blindly on a scale of 0-4

SMILES: O=P1(N(CCCl)CCCl)NCCCO1 (centres unmarked) [cyclophosphamide, Cyclophosphamide]
- mice that reached severe proteinuria (>500 mg/dL/day) (NZB/NZWF1 mice [1]): 20%
- effect on development of autoantibodies against dsDNA (serum IgG titers) (NZB/NZWF1 mice [2]): effectively reduced
- survival (NZB/NZWF1 mice [3]): 80%
- median glomerulopathy scores (NZB/NZWF1 mice [4]; compared to rat IgG and vehicle control groups): reduced
- interstitial inflammation (NZB/NZWF1 mice [4]): Reduced
- CD4+ cells infiltrating the kidneys (NZB/NZWF1 mice [5]): significant decrease
- CD8+ cells infiltrating the kidneys (NZB/NZWF1 mice [5]): significant decrease
- FoxP3+ cells infiltrating the kidneys (NZB/NZWF1 mice [5]): significant decrease
